Laboratory results reported in ChEMBL document CHEMBL6096651, “Synthesis, evaluation and mechanism study of novel pyrazole enamides to alleviate lung injury” (Eur J Med Chem, 2025).
Activity calls are given as the source filed them. The calls are words filed in the database; no cut-off is given here.

Assays:
[1] = test system: RAW264.7; experiment: Anti-inflammatory activity against LPS-induced mouse RAW264.7 cells assessed as inhibition of IL-6 mRNA level at 10 uM preincubated with compound for 1 hr followed by LPS-induction and measured after 4 to 24 hrs by RT-qPCR analysis; type: functional; conditions: time 5-25 hrs
[2] = test system: RAW264.7; experiment: Anti-inflammatory activity against LPS-induced mouse RAW264.7 cells assessed as inhibition of IL-1beta mRNA level at 10 uM preincubated with compound for 1 hr followed by LPS-induction and measured after 4 to 24 hrs by RT-qPCR analysis; type: functional; conditions: time 5-25 hrs
[3] = test system: RAW264.7; experiment: Anti-inflammatory activity against LPS-induced mouse RAW264.7 cells assessed as inhibition of IL-6 level incubated for 24 hrs by ELISA analysis; type: functional, cell-based; conditions: RAW264.7, 24 h
[4] = test system: Mus musculus; experiment: Anti-inflammatory activity against PM2.5-induced lung injury C57BL/6 mouse model assessed as decrease in iNOS expression in lung at 15 to 60 mg/kg, po administered for 7 days by IHC analysis; type: functional, organism-based; conditions: dose 15-60 mg/kg, time 7.0 day
[5] = Toxicity in C57BL/6 mouse assessed as pathological changes in kidney at 15 to 60 mg/kg, po administered for 7 days by H and E staining based analysis; type: organism-based; conditions: in vivo, 168 h, dose 15-60 mg/kg, time 7 day
[6] = test system: RAW264.7; experiment: Upregulation of Nrf2 mRNA level in LPS-induced mouse RAW264.7 cells at 10 to 50 uM; type: functional, cell-based; conditions: dose 10-50 µM
[7] = test system: Mus musculus; experiment: Anti-inflammatory activity against PM2.5-induced lung injury C57BL/6 mouse model assessed as pulmonary alveoli collapse at 15 to 60 mg/kg, po administered for 7 days by H and E staining based analysis; type: functional, organism-based; conditions: dose 15-60 mg/kg, time 7.0 day
[8] = test system: RAW264.7; experiment: Anti-inflammatory activity against LPS-induced mouse RAW264.7 cells assessed as inhibition of TNF-alpha mRNA level at 20 uM preincubated with compound for 1 hr followed by LPS-induction and measured after 4 to 24 hrs by RT-qPCR analysis; type: functional, cell-based; conditions: time 5-25 hrs
[9] = test system: RAW264.7; experiment: Activation of Nrf2-Keap1-HO-1 signaling pathway in mouse RAW264.7 cells assessed as upregulation of P62 expression at 10 to 50 uM by Western blot analysis; type: cell-based; conditions: filed as activator, dose 10-50 µM
[10] = test system: Mus musculus; experiment: Anti-inflammatory activity against PM2.5-induced lung injury C57BL/6 mouse model assessed as reduction in number of cells in BALF at 15 to 60 mg/kg, po administered for 7 days; type: functional, organism-based; conditions: dose 15-60 mg/kg, time 7.0 day
[11] = test system: RAW264.7; experiment: Anti-inflammatory activity against LPS-induced mouse RAW264.7 cells assessed as increase in NRF2 nuclear translocation by laser confocal scanning microscopic analysis; type: functional, cell-based
[12] = test system: RAW264.7; experiment: Upregulation of HO-1 mRNA level in LPS-induced mouse RAW264.7 cells at 10 to 50 uM; type: functional, cell-based; conditions: dose 10-50 µM
[13] = Toxicity in C57BL/6 mouse assessed as reduction in body weight at 15 to 60 mg/kg, po administered for 7 days; type: organism-based; conditions: in vivo, 168 h, dose 15-60 mg/kg, time 7 day
[14] = test system: Mus musculus; experiment: Anti-inflammatory activity against PM2.5-induced lung injury C57BL/6 mouse model assessed as decrease in LY6G expression in lung at 15 to 60 mg/kg, po administered for 7 days by IHC analysis; type: functional, organism-based; conditions: dose 15-60 mg/kg, time 7.0 day
[15] = test system: Mus musculus; experiment: Anti-inflammatory activity against PM2.5-induced lung injury C57BL/6 mouse model assessed as lung particle aggregation at 15 to 60 mg/kg, po administered for 7 days by H and E staining based analysis; type: functional, organism-based; conditions: dose 15-60 mg/kg, time 7.0 day
[16] = test system: RAW264.7; experiment: Anti-inflammatory activity against LPS-induced mouse RAW264.7 cells assessed as inhibition of IL-1beta mRNA level at 20 uM preincubated with compound for 1 hr followed by LPS-induction and measured after 4 to 24 hrs by RT-qPCR analysis; type: functional, cell-based; conditions: time 5-25 hrs
[17] = test system: Mus musculus; experiment: Anti-inflammatory activity against PM2.5-induced lung injury C57BL/6 mouse model assessed as reduction in WBC cells in peripheral blood at 15 to 60 mg/kg, po administered for 7 days; type: functional, organism-based; conditions: dose 15-60 mg/kg, time 7.0 day
[18] = test system: RAW264.7; experiment: Anti-inflammatory activity against LPS-induced mouse RAW264.7 cells assessed as inhibition of IL-6 mRNA level preincubated with compound for 1 hr followed by LPS-induction and measured after 4 to 24 hrs by RT-qPCR analysis; type: functional, cell-based; conditions: dose 10-50 µM, time 5-25 hrs
[19] = test system: Mus musculus; experiment: Anti-inflammatory activity against PM2.5-induced lung injury C57BL/6 mouse model assessed as inhibition of mucin expression in lung at 15 to 60 mg/kg, po administered for 7 days by AB-PAS staining based analysis; type: functional, organism-based; conditions: dose 15-60 mg/kg, time 7.0 day
[20] = test system: RAW264.7; experiment: Activation of Nrf2-Keap1-HO-1 signaling pathway in mouse RAW264.7 cells assessed as upregulation of HO-1 expression at 10 to 50 uM by Western blot analysis; type: cell-based; conditions: filed as activator, dose 10-50 µM
[21] = test system: Mus musculus; experiment: Anti-inflammatory activity against PM2.5-induced lung injury C57BL/6 mouse model assessed as increase in Arg-1 level in lung at 15 to 60 mg/kg, po administered for 7 days by IHC analysis; type: functional, organism-based; conditions: dose 15-60 mg/kg, time 7.0 day
[22] = test system: RAW264.7; experiment: Activation of Nrf2/HO-1 signalling pathway in LPS-induced mouse RAW264.7 cells assessed as induction of Nrf2 nuclear translocation at 20 uM in presence of KI696; type: cell-based; conditions: filed as activator
[23] = test system: NCI-H292; experiment: Anti-inflammatory activity against EGF-induced human NCI-H292 cells assessed as decrease in MUC5AC mRNA expression at 20 to 50 uM by RT-qPCR analysis; type: functional, cell-based; conditions: dose 20-50 µM
[24] = Toxicity in C57BL/6 mouse assessed as liver damage at 15 to 60 mg/kg, po administered for 7 days by H and E staining based analysis; type: organism-based; conditions: in vivo, 168 h, dose 15-60 mg/kg, time 7 day
[25] = test system: RAW264.7; experiment: Anti-inflammatory activity against LPS-induced mouse RAW264.7 cells assessed as inhibition of TNF-alpha mRNA level preincubated with compound for 1 hr followed by LPS-induction and measured after 4 to 24 hrs by RT-qPCR analysis; type: functional, cell-based; conditions: dose 10-50 µM, time 5-25 hrs
[26] = test system: Mus musculus; experiment: Anti-inflammatory activity against PM2.5-induced lung injury C57BL/6 mouse model assessed as infiltration of inflammatory cells at 15 to 60 mg/kg, po administered for 7 days by H and E staining based analysis; type: functional, organism-based; conditions: dose 15-60 mg/kg, time 7.0 day
[27] = test system: RAW264.7; experiment: Activation of Nrf2/HO-1 signalling pathway in LPS-induced mouse RAW264.7 cells assessed as induction of Nrf2 nuclear translocation at 20 uM; type: cell-based; conditions: filed as activator
[28] = test system: Mus musculus; experiment: Anti-inflammatory activity against PM2.5-induced lung injury C57BL/6 mouse model assessed as decrease in collagen formation in lung at 15 to 60 mg/kg, po administered for 7 days by Masson staining based analysis; type: functional, organism-based; conditions: dose 15-60 mg/kg, time 7.0 day
[29] = test system: RAW264.7; experiment: Anti-inflammatory activity against LPS-induced mouse RAW264.7 cells assessed as inhibition of IL-1beta mRNA level preincubated with compound for 1 hr followed by LPS-induction and measured after 4 to 24 hrs by RT-qPCR analysis; type: functional, cell-based; conditions: dose 10-50 µM, time 5-25 hrs
[30] = test system: RAW264.7; experiment: Upregulation of Keap1 mRNA level in LPS-induced mouse RAW264.7 cells at 10 to 50 uM; type: functional, cell-based; conditions: dose 10-50 µM
[31] = test system: RAW264.7; experiment: Anti-inflammatory activity against LPS-induced mouse RAW264.7 cells assessed as inhibition of TNF-alpha mRNA level at 2 uM preincubated with compound for 1 hr followed by LPS-induction and measured after 4 to 24 hrs by RT-qPCR analysis; type: functional, cell-based; conditions: time 5-25 hrs
[32] = test system: RAW264.7; experiment: Activation of Nrf2/HO-1 signalling pathway in LPS-induced mouse RAW264.7 cells assessed as induction of Nrf2 nuclear translocation at 2 uM; type: cell-based; conditions: filed as activator
[33] = test system: RAW264.7; experiment: Anti-inflammatory activity against LPS-induced mouse RAW264.7 cells assessed as inhibition of IL-1beta mRNA level at 2 uM preincubated with compound for 1 hr followed by LPS-induction and measured after 4 to 24 hrs by RT-qPCR analysis; type: functional, cell-based; conditions: time 5-25 hrs
[34] = test system: RAW264.7; experiment: Cytotoxicity against mouse RAW264.7 cells at 10 uM by CCK-8 assay; type: functional, cell-based

CN(/C=C\c1ccccc1)C(=O)/C=C/c1ccccc1 [LANSIUMAMIDE B]
inhibition at 10 µM [1]: 73.4%
inhibition at 10 µM [2]: 18%

CN(/C=C\c1ccccc1)C(=O)c1cc(-c2ccccc2C(F)(F)F)nn1-c1ccc(C(F)(F)F)cc1
inhibition at 10 µM [2]: 96%

Cc1ccccc1-c1cc(C(=O)N(C)/C=C\c2ccccc2)n(-c2ccc(C(F)(F)F)cc2)n1
inhibition at 10 µM [2]: 95.8%

CN(/C=C\c1ccccc1)C(=O)c1cc(-c2ccc(C(F)(F)F)cc2)nn1-c1ccc(C(F)(F)F)cc1
inhibition at 10 µM [2]: 93.5%

Cc1cccc(-c2cc(C(=O)N(C)/C=C\c3ccccc3)n(-c3ccc(C(F)(F)F)cc3)n2)c1
inhibition at 10 µM [1]: 49.5%
inhibition at 10 µM [2]: 9.84%

CN(/C=C\c1ccccc1)C(=O)c1cc(-c2ccccc2Cl)nn1-c1ccc(C(F)(F)F)cc1
inhibition at 10 µM [1]: 53.9%
inhibition at 10 µM [2]: 97.1%

CN(/C=C\c1ccccc1)C(=O)c1cc(C(C)(C)C)n(-c2ccc(F)cc2)n1
IC50 [3]: 4.82 µM
Activity [4]: Active
Activity [5]: Non-toxic
Activity [6]: Active
Activity [7]: Active
Activity [8]: Active
Activity [9]: Active
Activity [10]: Active
Activity [11]: Active
Activity [12]: Active
inhibition at 10 µM [1]: 60.3%
Activity [13]: Non-toxic
Activity [14]: Active
Activity [15]: Active
Activity [16]: Active
Activity [17]: Active
Activity [18]: Dose-dependent-effect
Activity [19]: Active
Activity [20]: Active
Activity [21]: Active
Activity [22]: Active
Activity [23]: Active
Activity [24]: Non-toxic
Activity [25]: Dose-dependent-effect
Activity [26]: Active
Activity [27]: Active
Activity [28]: Active
Activity [29]: Dose-dependent-effect
inhibition at 10 µM [2]: 96%
Activity [30]: Active

Cc1ccc(-c2cc(C(=O)N(C)/C=C\c3ccccc3)n(-c3ccc(C(F)(F)F)cc3)n2)cc1
inhibition at 10 µM [2]: 91.1%

COc1ccc(-n2nc(C(=O)N(C)/C=C\c3ccccc3)cc2C(C)(C)C)cc1
inhibition at 10 µM [2]: 94.7%

CN(/C=C\c1ccccc1)C(=O)c1cc(-c2ccccc2F)nn1-c1ccc(C(F)(F)F)cc1
inhibition at 10 µM [1]: 50.2%
inhibition at 10 µM [2]: 96.5%

COc1cc([C@@H](CC(=O)O)c2ccc(C)c(CN3C[C@@H](C)Oc4ccccc4S3(=O)=O)c2)cc2nnn(C)c12
Activity [11]: Active
Activity [31]: Active
Activity [32]: Active
Activity [33]: Active

Cc1ccc(-n2nc(C(=O)N(C)/C=C\c3ccccc3)cc2C(C)(C)C)cc1
Activity [34]: Active

CN(/C=C\c1ccccc1)C(=O)c1cc(-c2ccccc2)nn1-c1ccc(C(F)(F)F)cc1
inhibition at 10 µM [2]: 94.5%
